Laboratory results as given in publication PMC3063124 (The Journal of neuroscience : the official journal of the …, 2011).

Target: GluN1/GluN2D (Rattus norvegicus, UniProt Q62645)
Format: cell-based
Details: absence of QNZ46; continuous presence of glycine

GluN1/GluN2D, sequence (Q62645 28-1323, other chains not shown): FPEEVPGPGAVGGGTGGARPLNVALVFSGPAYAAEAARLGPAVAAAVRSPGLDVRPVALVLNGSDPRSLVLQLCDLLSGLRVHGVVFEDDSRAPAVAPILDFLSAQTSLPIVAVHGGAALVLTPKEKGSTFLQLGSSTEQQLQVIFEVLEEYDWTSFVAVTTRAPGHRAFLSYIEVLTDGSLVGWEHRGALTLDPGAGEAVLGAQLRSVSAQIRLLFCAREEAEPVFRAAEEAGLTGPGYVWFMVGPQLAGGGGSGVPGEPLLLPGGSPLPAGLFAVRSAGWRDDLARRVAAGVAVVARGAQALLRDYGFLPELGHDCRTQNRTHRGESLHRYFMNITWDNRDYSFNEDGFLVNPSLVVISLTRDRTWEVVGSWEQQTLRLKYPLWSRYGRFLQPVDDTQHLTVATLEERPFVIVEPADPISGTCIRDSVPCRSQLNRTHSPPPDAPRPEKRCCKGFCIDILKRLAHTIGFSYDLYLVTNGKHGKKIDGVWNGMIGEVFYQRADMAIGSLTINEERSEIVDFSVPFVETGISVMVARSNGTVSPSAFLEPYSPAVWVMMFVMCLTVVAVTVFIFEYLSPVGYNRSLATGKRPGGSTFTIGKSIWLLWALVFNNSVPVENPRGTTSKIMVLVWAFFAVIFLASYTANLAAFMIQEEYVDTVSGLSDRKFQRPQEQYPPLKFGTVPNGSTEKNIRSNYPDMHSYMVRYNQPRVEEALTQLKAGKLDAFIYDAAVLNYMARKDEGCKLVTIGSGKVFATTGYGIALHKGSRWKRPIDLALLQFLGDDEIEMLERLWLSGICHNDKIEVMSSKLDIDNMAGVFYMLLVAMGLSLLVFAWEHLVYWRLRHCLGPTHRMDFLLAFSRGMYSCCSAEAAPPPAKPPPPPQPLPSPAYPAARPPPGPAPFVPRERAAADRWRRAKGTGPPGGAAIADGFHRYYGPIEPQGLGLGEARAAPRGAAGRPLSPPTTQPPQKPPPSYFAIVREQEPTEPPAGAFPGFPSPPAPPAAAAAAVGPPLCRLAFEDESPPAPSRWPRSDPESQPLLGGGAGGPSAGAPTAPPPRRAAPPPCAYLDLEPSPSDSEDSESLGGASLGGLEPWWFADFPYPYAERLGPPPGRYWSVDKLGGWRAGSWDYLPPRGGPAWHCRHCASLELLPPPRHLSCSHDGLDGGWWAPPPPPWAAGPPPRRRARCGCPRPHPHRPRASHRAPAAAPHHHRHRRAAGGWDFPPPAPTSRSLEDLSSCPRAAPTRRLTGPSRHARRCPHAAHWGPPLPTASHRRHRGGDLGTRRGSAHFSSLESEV

Compound: CN[C@H](CC(=O)O)C(=O)O [NMDA, N-methyl-D-aspartate, reference compound]
- time constant for agonist deactivation (τweighted): 92 ms
